Assay results from paper PMC9317327, “Functional Characterization, Antimicrobial Effects, and Potential Antibacterial Mechanisms of NpHM4, a Derived Peptide of Nautilus pompilius Hemocyanin” (Marine Drugs, 2022).
Converted amounts (≈) assume the structure as drawn. Where a SMILES comes first, the peptide text is derived from it.

Tests used:
E. coli = details: cited from earlier work
Method: In order to explore the antibacterial activity of the six predicted AMPs, the minimal inhibitory concentrations (MICs) and the minimal bactericidal concentrations (MBCs) of chemically synthesized NpHN1–NpHN6 peptides were measured against Gram-negative bacteria (Vibrio alginolyticus and Escherichia coli). […] The GR ...

Staphylococcus aureus = details: cited from earlier work
Bacillus megaterium = details: cited from earlier work
[1] = test system: Vibrio alginolyticus (A056); type: cell-based; details: 2 h
[2] = test system: Staphylococcus aureus ATCC 25923; type: cell-based; details: ATCC 25923, 2 h, pH 7.2
Method: (§1) The antimicrobial activity of the peptides was determined against Gram-negative bacteria, including V. alginolyticus (A056), E. coli (DH5α), and V. parahaemolyticus (2013V-1174), which were obtained from the South China Sea Institute of Oceanology, Chinese Academy of Sciences. The activity was also tested against the Gram-positive bacteria S. aureus ATCC 25923 and B. subtilis ATCC 6051. To assess the antimicrobial activities of the peptides, bacterial cells were cultured to the logarithmic growth phase and then diluted to 10^6–1.5 × 10^7 CFU/mL with PBS (0.01 M, pH 7.2). Equal volumes of serially diluted peptides, with concentrations ranging from 30 to 450 μM in PBS, and bacteria suspension were mixed and incubated at room temperature for 2 h, respectively. Then, 6 μL of each serially diluted mixture was plated on sterile 12-well agar plates, followed by incubation for 11 to 12 h, and the colonies were assessed to determine the MICs and MBCs. The MICs were expressed (in µM) as an [a]–[b] concentration interval, where [a] is the highest peptide concentration at which bacteria were growing and [b] is the lowest concentration that caused 100% growth inhibition. Cultures without peptides were employed as controls. All the tests were performed in triplicate and repeated three times.

[3] = test system: Vibrio parahaemolyticus 2013V-1174; type: cell-based; details: 2 h, pH 7.2
Method: as §1

Escherichia coli (DH5α) = type: cell-based; details: DH5α, 2 h, pH 7.2
Method: as §1

[4] = test system: Bacillus subtilis ATCC 6051; type: cell-based; details: ATCC 6051, 2 h, pH 7.2
Method: as §1

[5] = test system: Vibrio alginolyticus (A056); type: cell-based; details: 2 h, pH 7.2
Method: as §1

[6] = test system: Vibrio parahaemolyticus 2013V-1174; type: cell-based; details: 2 h

GSTSFHLIYNKWFAVKRRRKR [GR21]
MBC (E. coli): below 25 μM | MBC (Staphylococcus aureus): below 25 μM | MBC (Bacillus megaterium): below 25 μM

CC[C@H](C)[C@H](NC(=O)CNC(=O)[C@H](Cc1c[nH]cn1)NC(=O)[C@H](CCCNC(=N)N)NC(=O)[C@H](CC(C)C)NC(=O)[C@H](Cc1ccccc1)NC(=O)CNC(=O)[C@H](C)NC(=O)[C@H](Cc1ccccc1)NC(=O)[C@@H](NC(=O)[C@@H](N)CCCNC(=N)N)C(C)C)C(=O)N[C@@H](CCCCN)C(=O)N[C@@H](CCCNC(=N)N)C(=O)N[C@@H](CO)C(=O)N[C@@H](CCCNC(=N)N)C(=O)O [NpHM4] (H-RVFAGFLRHGIKRSR-OH)
IC50 [1]: 12.2 µM | MBC [2]: >50 µM | MIC [2]: >50 µM | MBC [3]: 50 µM (≈ 90 µg/mL) | MIC [3]: 15 to 45 µM | MBC (Escherichia coli (DH5α)): >150 µM | MIC (Escherichia coli (DH5α)): 50 to 150 µM | MBC [4]: >50 µM | MIC [4]: >50 µM | MBC [5]: 30 µM (≈ 54 µg/mL) | MIC [5]: 5 to 25 µM | IC50 [6]: 32.1 µM

CC[C@H](C)[C@H](NC(=O)CNC(=O)[C@H](Cc1c[nH]cn1)NC(=O)[C@H](CCCNC(=N)N)NC(=O)[C@H](CC(C)C)NC(=O)[C@H](Cc1ccccc1)NC(=O)CNC(=O)[C@H](C)NC(=O)[C@H](CCCNC(=N)N)NC(=O)[C@@H](NC(=O)[C@@H](N)CCCNC(=N)N)C(C)C)C(=O)N[C@@H](CCCCN)C(=O)N[C@@H](CCCNC(=N)N)C(=O)N[C@@H](CO)C(=O)N[C@@H](C)C(=O)O [NpHM6] (H-RVRAGFLRHGIKRSA-OH)
MBC [2]: >50 µM | MIC [2]: >50 µM | MBC [3]: >60 µM | MIC [3]: 15 to 60 µM | MBC (Escherichia coli (DH5α)): >50 µM | MIC (Escherichia coli (DH5α)): >50 µM | MBC [4]: >50 µM | MIC [4]: >50 µM | MBC [5]: >70 µM | MIC [5]: >70 µM
